According to BigSolDB 2.1:

| SMILES | solubility (mole fraction) (in 1,4-dioxane, 273.15 K) | solubility (mole fraction) (in 1,4-dioxane, 278.15 K) | solubility (mole fraction) (in 1,4-dioxane, 283.15 K) | solubility (mole fraction) (in 1,4-dioxane, 288.15 K) | solubility (mole fraction) (in 1,4-dioxane, 293.15 K) | solubility (mole fraction) (in 1,4-dioxane, 298.15 K) | solubility (mole fraction) (in 1,4-dioxane, 303.15 K) | solubility (mole fraction) (in 1,4-dioxane, 308.15 K) | solubility (mole fraction) (in 1,4-dioxane, 313.15 K) | solubility (mole fraction) (in acetone, 273.15 K) | solubility (mole fraction) (in acetone, 278.15 K) | solubility (mole fraction) (in acetone, 283.15 K) | solubility (mole fraction) (in acetone, 288.15 K) | solubility (mole fraction) (in acetone, 293.15 K) | solubility (mole fraction) (in acetone, 298.15 K) | solubility (mole fraction) (in acetone, 303.15 K) | solubility (mole fraction) (in acetone, 308.15 K) | solubility (mole fraction) (in acetone, 313.15 K) | solubility (mole fraction) (in ethyl acetate, 273.15 K) | solubility (mole fraction) (in ethyl acetate, 278.15 K) | other results |
| --- | --- | --- | --- | --- | --- | --- | --- | --- | --- | --- | --- | --- | --- | --- | --- | --- | --- | --- | --- | --- | --- |
| O=C(O)c1cccc(Cl)c1C(=O)c1ccccc1 | 0.0192 | 0.021 | 0.0231 | 0.0254 | 0.0281 | 0.0309 | 0.034 | 0.0373 | 0.0413 | 0.00169 | 0.00183 | 0.00204 | 0.00225 | 0.00258 | 0.00281 | 0.00308 | 0.00349 | 0.00385 | 0.00545 | 0.00599 | solubility (mole fraction) (in 1,4-dioxane, 318.15 K): 0.0462; solubility (mole fraction) (in acetone, 318.15 K): 0.00432; solubility (mole fraction) (in ethyl acetate, 283.15 K): 0.00692; solubility (mole fraction) (in ethyl acetate, 288.15 K): 0.00811; solubility (mole fraction) (in ethyl acetate, 293.15 K): 0.00959; solubility (mole fraction) (in ethyl acetate, 298.15 K): 0.011; solubility (mole fraction) (in ethyl acetate, 303.15 K): 0.0128; solubility (mole fraction) (in ethyl acetate, 308.15 K): 0.0146; solubility (mole fraction) (in ethyl acetate, 313.15 K): 0.0172; solubility (mole fraction) (in ethyl acetate, 318.15 K): 0.0197 |
| O=C1c2ccccc2C(=O)c2c(Cl)cccc21 | 0.00323 | 0.00373 | 0.00412 | 0.00469 | 0.00547 | 0.00607 | 0.00691 | 0.00775 | 0.00896 | 0.00272 | 0.00308 | 0.00336 | 0.00388 | 0.00448 | 0.00531 | 0.00611 | 0.00692 | 0.00767 | 0.00335 | 0.00387 | solubility (mole fraction) (in ethyl acetate, 283.15 K): 0.00459; solubility (mole fraction) (in ethyl acetate, 288.15 K): 0.00531; solubility (mole fraction) (in ethyl acetate, 293.15 K): 0.00605; solubility (mole fraction) (in ethyl acetate, 298.15 K): 0.0069; solubility (mole fraction) (in ethyl acetate, 303.15 K): 0.00795; solubility (mole fraction) (in ethyl acetate, 308.15 K): 0.00913; solubility (mole fraction) (in ethyl acetate, 313.15 K): 0.0106; solubility (mole fraction) (in toluene, 273.15 K): 0.00918; solubility (mole fraction) (in toluene, 278.15 K): 0.01; solubility (mole fraction) (in toluene, 283.15 K): 0.0112; solubility (mole fraction) (in toluene, 288.15 K): 0.0122; solubility (mole fraction) (in toluene, 293.15 K): 0.0132; solubility (mole fraction) (in toluene, 298.15 K): 0.0146; solubility (mole fraction) (in toluene, 303.15 K): 0.016; solubility (mole fraction) (in toluene, 308.15 K): 0.0175; solubility (mole fraction) (in toluene, 313.15 K): 0.019 |
